101 compounds from ChEMBL document CHEMBL3507680, “University of Dundee, Gates Library screen for HepG2 cell viability” can be followed below.

The nature of the series: Human HepG2 cell viability assay in 384 well format. The class given is toxicity, cell-based. Also noted: dose 125 nL, time 70.5 hour; cytotoxicity at 70.5 h: concentration not given beside the values. As to conditions: HepG2 cells, read-out: Inhibition.

For `CCN(Cc1cccc(F)c1)Cc1nc2c(cnn2C)c(=O)[nH]1`, the cytotoxicity at 70.5 h stood at 14.7%. For `CCN(Cc1ccc(OC)c(F)c1)Cc1nc2c(cnn2C)c(=O)[nH]1`, the cytotoxicity at 70.5 h was -1.49%. `CS(=O)(=O)N1CCN(CC(O)COc2ccc(Cl)cc2)CC1` (stereo unspecified): the cytotoxicity at 70.5 h came out at 0.0303%. Take `NC(=O)Cn1cc(NC(=O)NCCN2CCc3ccccc3C2)cn1`: the cytotoxicity at 70.5 h is -5.44%. For `Cc1nc2c(c(C)c1CC(=O)NCc1ccc(F)cc1)c(=O)[nH]n2C` the value was 21.3%; for `O=C(CCc1ccc(Cl)s1)N1CCC(N2CCNC2=O)CC1`, -3.74%; for `Cc1nc2c(c(C)c1CC(=O)NCc1ccco1)c(=O)[nH]n2C`, -3.09%. `CCc1nc(C2CCCN(C(=O)c3ccc4[nH]cnc4c3)C2)no1` (stereo unspecified): the cytotoxicity at 70.5 h came out at 12.5%. As for `CCOC1CCN(C(=O)NCCc2ccn(-c3ccccc3)n2)CC1`, the cytotoxicity at 70.5 h is -2.77%. With `CCc1nc(C2CCCN(C(=O)c3ccncc3)C2)no1` (stereo unspecified), the cytotoxicity at 70.5 h is -1.21%. For `Cc1cnn(CC2CCCCN2C(=O)c2cccc(C(N)=O)c2)c1` (stereo unspecified) the value was -1.63%.

`Cc1cnn(CC2CCCCN2C(=O)c2ccc3[nH]c(=O)[nH]c3c2)c1` (stereo unspecified): the cytotoxicity at 70.5 h was -0.746%. As to `CC(=O)Nc1nc(C(=O)N2CCCC2Cn2cccn2)cs1` (stereo unspecified), the cytotoxicity at 70.5 h is -0.875%. The same measure for `Cc1cnn(CC2CCCCN2C(=O)c2ccc(CN(C)C)cc2)c1` (stereo unspecified): -8.06%.

On to `Cc1cnn(CC2CCCCN2C(=O)c2ccc(N(C)C)nc2)c1` (stereo unspecified), for which the cytotoxicity at 70.5 h is 0.883%. `CC(=O)Nc1nc(C(=O)N2CCCCC2Cn2cccn2)cs1` (stereo unspecified): the cytotoxicity at 70.5 h is -0.594%. With `CCn1c(C)nnc1CN(C)C1CCN(CCOc2ccccc2)C1` (stereo unspecified), the cytotoxicity at 70.5 h was determined as 29.3%. In the case of `Cc1nc(C)n(CC2CCCN(CCC(=O)NC3CCCC3)C2)n1` (stereo unspecified), the cytotoxicity at 70.5 h was 24.8%.

Take `CC(=O)N(Cc1ncc(C)o1)C1CCN(Cc2ccon2)C1` (stereo unspecified): the cytotoxicity at 70.5 h came out at 22.2%. For `CC(=O)N(Cc1noc(C)n1)C1CCN(Cc2ncc(C(C)C)o2)C1` (stereo unspecified) the value was 51.4%; for `CC(=O)N(Cc1ncc(C)o1)C1CCN(Cc2csc(C)n2)C1` (stereo unspecified), -1.47%; for `CCn1cnnc1CNC(=O)N1CCN(CC(C)C)CC1`, -1.52%. For `CC(=O)N(Cc1ncc(C)o1)C1CCN(Cc2cc(C)on2)C1` (stereo unspecified) the value was -4.42%. For `Cc1cnn(CC2CCCN2C(=O)CCc2ccncc2)c1` (stereo unspecified) the value was -1.24%.

Turning to `CCn1c(C)nnc1CN(C)C1CCN(CCS(=O)(=O)CC)C1` (stereo unspecified), the cytotoxicity at 70.5 h was -5.35%. For `O=C(CN(Cc1ccco1)C1CC1)N1CCCCCC1`, the cytotoxicity at 70.5 h was -1.39%.

Regarding `CS(=O)(=O)NC1CCCN(C(=O)NCc2ccccc2Cl)C1` (stereo unspecified), the cytotoxicity at 70.5 h is -2.53%. As for `Cc1ccc(CNC(=O)N2CCCC(NS(C)(=O)=O)C2)cc1` (stereo unspecified), the cytotoxicity at 70.5 h was determined as 2.89%. The same measure for `CCn1cnnc1CNC(=O)N1CCC(OCc2ccccc2)CC1`: -2.7%; for `CCn1cnnc1CNC(=O)N1CCN(CCc2ccccc2)CC1`: -2.4%.

On to `O=C(NCC(c1ccc(F)cc1)N1CCOCC1)Nc1cn[nH]c1` (stereo unspecified), for which the cytotoxicity at 70.5 h was 18.9%.

On to `CC(=O)NC1CCCN(C(=O)NCc2cccnc2)C1` (stereo unspecified), for which the cytotoxicity at 70.5 h was determined as 0.9%. For `Cc1cccc(C(=O)N(C)C2CCN(c3ccccn3)CC2)c1C` the value was 2.5%; for `CN(C(=O)c1cccc(Cl)c1)C1CCN(c2ccccn2)CC1`, 2.1%; for `CCn1cnnc1CNC(=O)N1CCN(Cc2ccco2)CC1`, 1.5%. The same measure for `CCOc1ncccc1C(=O)N(C)C1CCN(c2ccccn2)CC1`: 2.78%. The same measure for `COc1ccccc1C(=O)N(C)C1CCN(c2ccccn2)CC1`: -0.00253%; for `CCc1nc(C2CCCN(C(=O)NC(C)C)C2)no1` (stereo unspecified): 21.2%; for `N#Cc1ccsc1C(=O)N1CCCN(Cc2cscn2)CC1`: 5.01%. Consider `Cc1nc(C)n(CC2CN(CCC(=O)N3CCCCC3)CCO2)n1` (stereo unspecified), for which the cytotoxicity at 70.5 h was -6.29%. The same measure for `Cc1cn2c(n1)CCC(NC(=O)c1cncnc1C)C2` (stereo unspecified): -5.83%; for `CC(C)c1n[nH]c(C2CN(C(=O)c3ccnc(C4CC4)n3)CCO2)n1` (stereo unspecified): 16.3%. As for `CCc1nncn1CCNC(=O)N1CCN(Cc2ccccc2)CC1`, the cytotoxicity at 70.5 h was found to be 3.82%.

For the compound `CCn1cnnc1CNC(=O)N1CCN(Cc2ccsc2)CC1`, the cytotoxicity at 70.5 h was 2.69%.

For the compound `CCn1cc(CN2CCCN(C(=O)c3ccc(C)nc3)CC2)cn1`, the cytotoxicity at 70.5 h was -6.02%. The same measure for `Cc1ocnc1C(=O)N1CCCN(Cc2cscn2)CC1`: 21.9%; for `Cc1nc(CN(Cc2ccc3c(c2)OCCO3)C2CCCC2)no1`: -7.64%. With `COCCc1noc(CNCC2CCCN2c2cccnn2)n1` (stereo unspecified), the cytotoxicity at 70.5 h was 2.33%.

Regarding `CC(C)COC(C)C(=O)NCc1ccc(N(C)C)cc1` (stereo unspecified), the cytotoxicity at 70.5 h came to 7.68%. For the compound `c1cnn(CC2CN(CCc3ccncc3)CCO2)c1` (stereo unspecified), the cytotoxicity at 70.5 h is -4.36%. The same measure for `Cn1cnnc1C1CCCN(C(=O)c2ccccc2Cl)C1` (stereo unspecified): -4.06%; for `COc1ccc(Br)c(C(=O)NCCNc2ccc(C(F)(F)F)cn2)c1`: -13.7%. The same measure for `COc1ccc(C(CNC(=O)Nc2cn[nH]c2)N2CCOCC2)cc1` (stereo unspecified): -4.89%. Take `CC(C)COC(C)C(=O)NCc1ccc(OC(C)C)nc1` (stereo unspecified): the cytotoxicity at 70.5 h is -3.57%. For `COc1ccccc1CNC(=O)N1CCCC(NS(C)(=O)=O)C1` (stereo unspecified) the value was 15.3%. Consider `COc1ccc(CNCc2c(C)nn(C)c2N2CCOCC2)cc1`, for which the cytotoxicity at 70.5 h was -3.63%. For `Cc1nc2c(c(C)c1CC(=O)Nc1cccc(C#N)c1)c(=O)[nH]n2C` the value was 15.2%. For the compound `CN(C(=O)c1cc(Cl)c[nH]1)C1CCN(c2ccccn2)CC1`, the cytotoxicity at 70.5 h is 8.18%. For `O=C(NCCS(=O)(=O)N1CCc2ccccc21)c1c(O)cc(F)cc1F` the value was -2.02%; for `Cc1cn2c(n1)CCC(NC(=O)c1cc(C(C)C)no1)C2` (stereo unspecified), -7.72%; for `Cc1n[nH]c(C2CN(C(=O)c3cc(C4CC4)[nH]n3)CCO2)n1` (stereo unspecified), 4.51%. The same measure for `Cc1n[nH]c(C2CN(C(=O)c3cnc[nH]3)CCO2)n1` (stereo unspecified): -11.1%; for `Cc1nc(CNCC2CCCN2c2cccnn2)no1` (stereo unspecified): -1.22%.

For `COc1ccc(CCC(=O)N2CCCC2Cn2cc(C)cn2)cc1F` (stereo unspecified), the cytotoxicity at 70.5 h was -6.64%. For `Fc1ccc(CN2CCCN(Cc3cscn3)CC2)cc1` the value was 23.4%; for `CCc1n[nH]c(C2CN(Cc3nccn3CC)CCO2)n1` (stereo unspecified), 22.2%.

As to `Cn1cnnc1C1CCCN(C(=O)Cc2ccc3c(c2)OCCO3)C1` (stereo unspecified), the cytotoxicity at 70.5 h is 0.026%. With `O=C(CCNC(=O)c1ccoc1)Nc1c(F)cccc1F`, the cytotoxicity at 70.5 h was -1.23%. For `CCOc1ncccc1C(=O)N(C)Cc1ncc(C)c(OC)c1C` the value was -2.95%; for `c1ccc(CN2CCN(Cc3cscn3)CC2)cc1`, -6.7%.

For the compound `Cc1ccccc1CN1CCN(CC(=O)Nc2cccnc2)CC1`, the cytotoxicity at 70.5 h was determined as 5.17%. For `O=C(CCCOc1ccc(F)cc1)N1CCCC(n2cccn2)C1` (stereo unspecified) the value was 0.781%; for `O=C(CN1CCOC(Cn2cccn2)C1)Nc1nncs1` (stereo unspecified), 34.7%. As for `Cc1nc(CN2CCN(CC(=O)Nc3c(C)cccc3C)CC2)no1`, the cytotoxicity at 70.5 h was -5.01%. Regarding `CC(C)c1nccn1C1CCCN(C(=O)c2ccc3[nH]nnc3c2)C1` (stereo unspecified), the cytotoxicity at 70.5 h turned out to be 30.1%.

In the case of `O=C(c1cccc2c1OCO2)N1CCCC1Cn1cccn1` (stereo unspecified), the cytotoxicity at 70.5 h is -8.17%. For `CC(C)c1nnc2n1CCN(CC(=O)Nc1nncs1)C2` the value was -6.91%. In the case of `CC(C)c1nnc2n1CCN(C(=O)c1ccc(-n3cnnc3)cc1)C2`, the cytotoxicity at 70.5 h turned out to be 27.3%.

As to `O=C(c1cccnc1N1CCOCC1)N1CCCC1Cn1cccn1` (stereo unspecified), the cytotoxicity at 70.5 h was -8.41%. Turning to `Cc1n[nH]c(C)c1NC(=O)CN1CCOC(Cn2cccn2)C1` (stereo unspecified), the cytotoxicity at 70.5 h was found to be 0.504%.

For the compound `Cc1nc(CN2CCCC(N(C)Cc3cscn3)C2)no1` (stereo unspecified), the cytotoxicity at 70.5 h was found to be 4.42%. Consider `COCCc1noc(CNC2CCc3nc(C(C)C)nn3C2)n1` (stereo unspecified), for which the cytotoxicity at 70.5 h is -5%.

With `Cc1nc(C)n(C2CCCN(C(=O)c3ccc(N(C)C)nn3)C2)n1` (stereo unspecified), the cytotoxicity at 70.5 h was -3.22%. The same measure for `CC(C)c1nc(CN2CCN(CC3CCCO3)CC2)cs1` (stereo unspecified): -2.13%. The same measure for `CCn1cnnc1C1CCN(C(=O)C(OC)c2ccccc2)CC1` (stereo unspecified): -0.299%; for `Cn1cnnc1C1CCCN(C(=O)NCCOc2ccccc2)C1` (stereo unspecified): 40.2%. The same measure for `CC(=O)Nc1nc(C(=O)NC(C)c2ccc(F)cc2)cs1` (stereo unspecified): -13.6%. `CC(OCC(F)(F)F)C(=O)NCc1ccc(-n2cncn2)nc1` (stereo unspecified): the cytotoxicity at 70.5 h was -12.1%. In the case of `CNS(=O)(=O)c1ccc(CNC(=O)NCC2CCCO2)cc1` (stereo unspecified), the cytotoxicity at 70.5 h was -20.2%. Consider `CCN(Cc1ccc2c(c1)OCCO2)C(=O)NCc1nc(C)cs1`, for which the cytotoxicity at 70.5 h was -27.9%. The same measure for `Cc1nnc(N2CCC(CNC(=O)OC(C)(C)C)CC2)c(C#N)c1C`: 1.28%; for `Cc1nc(CN2CCCN(C(=O)c3ccccn3)CC2)oc1C`: -10.4%. Turning to `Cc1cccc2nc(C(=O)N3CCC(Nc4cccnn4)CC3)cn12`, the cytotoxicity at 70.5 h is -21.3%. The same measure for `CC(NC(=O)NCc1cccc(N2CCCC2=O)c1)c1ccccc1` (stereo unspecified): -12.2%; for `O=C(c1cccc2cccnc12)N1CCCN(c2cccnn2)CC1`: -10.5%. The same measure for `O=C(c1ccccc1-n1cccn1)N1CCCN(c2cccnn2)CC1`: -21.8%; for `O=C(Nc1cc(F)ccc1OCC1CCCO1)c1ccccn1` (stereo unspecified): -8.61%. The same measure for `Cc1cc(CN2CCOC(CN(C)c3cccnn3)C2)no1` (stereo unspecified): -11.5%. For `O=C1CCCCN1c1cccc(CNC2CCCC2)c1`, the cytotoxicity at 70.5 h is -17.9%. For `O=C(c1cccn2ccnc12)N1CCCN(c2cccnn2)CC1` the value was -20.2%.

Consider `Cc1ccc(CNC2CCCc3c2cnn3C)s1` (stereo unspecified), for which the cytotoxicity at 70.5 h was -4.42%.
